From patent US12145915B1 (priority 2023, dated 2024)
≈ marks a conversion by molar mass, not a printed value.

Assays:
[1] = test system: MDR strain of Mycobacterium tuberculosis; experiment: microbe, parasite or virus in culture; assay type: cell-based; details: read-out: Anti-tubercular activity against Mycobacterium tuberculosis (μg/mL) MDR (MIC)
[2] = test system: XDR strain of Mycobacterium tuberculosis; experiment: microbe, parasite or virus in culture; assay type: cell-based; details: read-out: Anti-tubercular activity against Mycobacterium tuberculosis (μg/mL) XDR (MIC)

Row | SMILES | MIC [1] [µg/mL] | MIC [2] [µg/mL]
1 | COc1cc(/C=N/NC(=O)c2sc(-c3ccc(OCC(C)C)c(C#N)c3)nc2C)ccc1O [KNV-TZL2, (E)-2-(3-Cyano-4-isobutoxyphenyl)-N-(4-hydroxy-3-methoxybenzylidene)-4-methylthiazole-5-carbohydrazide] | 64 (≈ 138 µM) | 64 (≈ 138 µM)
2 | Cc1nc(-c2ccc(OCC(C)C)c(C#N)c2)sc1C(=O)N/N=C/c1ccc(F)c(Oc2ccccc2)c1 [KNV-TZL1, (E)-2-(3-Cyano-4-isobutoxyphenyl)-N-(4-fluoro-3-phenoxybenzylidene)-4-methylthiazole-5-carbohydrazide] | 32 (≈ 60.5 µM) | 128 (≈ 242 µM)
